From patent US20240408119A1, “DELIVERY OF THERAPEUTIC ALKALOID COMPOUNDS” (priority 2022, published 2024)

How the values were obtained:
Assay type in all cases: in vitro ADME
[1] = Plasma Stability Assay (Example A3), rat plasma; details: prodrug remaining, 10 μM, 37° C.
From the text: (§1) The data is represented in the table below.

[2] = Plasma Stability Assay (Example A3), human plasma; details: prodrug remaining, 10 μM, 37° C.
From the text: as §1

[3] = Metabolic Stability in Human Hepatocytes; details: cryopreserved human hepatocytes, 37° C.
Experimental: A 2.5 uL aliquot of 100 μM test compound was incubated with 247.5 uL of cryopreserved hepatocytes suspended in serum-free incubation medium at 5×10^5 viable cells/mL. The mixture was incubated at 37° C. and shaken at 500 rpm for the designated time points (0.5, 15, 30, 60, 90, or 120 min). At each time point, 25 μL aliquot of incubation mixture was transferred to 125 μL of cold acetonitrile containing internal standard, followed by centrifugation for 30 min at 3,220 g. 100 μL of supernatant was mixed with 100 μL of distilled water for analysis by LC-MS/MS. Peak areas were determined from extracted ion chromatograms and in vitro half-life (t1/2) was determined from the concentration vs time regression slope, in vitro t1/2=0.693/k. Conversion of the in vitro t1/2 (in min) into the in vitro intrinsic clearance (in vitro CLint, in μL/min/10^6 cells) is done using: in vitro CLint=kV/N.

| SMILES | Rat Plasma Prodrug (%) ([1]; 0 min) | Rat Plasma Prodrug (%) ([1]; 10 min) | Rat Plasma Prodrug (%) ([1]; 30 min) | Rat Plasma Prodrug (%) ([1]; 60 min) | Rat Plasma Prodrug (%) ([1]; 120 min) | Rat Plasma Prodrug (%) ([1]; 240 min) | Human Plasma Prodrug (%) ([2]; 0 min) | Human Plasma Prodrug (%) ([2]; 10 min) | Human Plasma Prodrug (%) ([2]; 30 min) | Human Plasma Prodrug (%) ([2]; 60 min) | Human Plasma Prodrug (%) ([2]; 120 min) | Human Plasma Prodrug (%) ([2]; 240 min) | half-life at 1 μM [3] | hepatocyte CLint at 1 μM [3] |
| --- | --- | --- | --- | --- | --- | --- | --- | --- | --- | --- | --- | --- | --- | --- |
| COc1ccc([C@@]23CCC(OP(=O)(O)OCOC(=O)C(C)(C)C)=C[C@@H]2N(C)CC3)cc1OC [Compound 409, [[(3aS,7aS)-3a-(3,4-dimethoxyphenyl)-1-methyl-3,4,5,7a-tetrahydro-2H-indol-6-yl]oxy-hydroxy-phosphoryl]oxymethyl 2,2-dimethylpropanoate] | 100.0% | 89.9% | 81.2% | 71.0% | 44.5% | 22.7% | 100.0% | >99% | 95.2% | 93.0% | 87.3% | 75.8% | 1540 min | 1.1 µL/min/1e6 cells |
| COc1ccc([C@@]23CCC(OP4(=O)OCCCO4)=C[C@@H]2N(C)CC3)cc1OC [Compound 422, 2-(((3aS,7aS)-3a-(3,4-dimethoxyphenyl)-1-methyl-2,3,3a, 4,5,7a-hexahydro-1H-indol-6-yl)oxy)-1,3,2-dioxaphosphinane 2-oxide] | 100.0% | >99% | >99% | >99% | 91.0% | 76.8% | 100.0% | 89.4% | 73.1% | 62.4% | 39.2% | 19.6% | 366 min | 3.9 µL/min/1e6 cells |
| COc1ccc([C@@]23CCC(OP4(=O)OC(C)CC(C)O4)=C[C@@H]2N(C)CC3)cc1OC (stereo partly drawn) [Compound 423, 2-(((3aS,7aS)-3a-(3,4-dimethoxyphenyl)-1-methyl-2,3,3a, 4,5,7a-hexahydro-1H-indol-6-yl)oxy)-4,6-dimethyl-1,3,2-dioxaphosphinane 2-oxide] | 100.00% | >99% | >99% | 91.05% | 83.29% | 67.32% | 100.00% | >99% | >99% | 98.77% | 97.80% | 89.67% | 57 min | 24.4 µL/min/1e6 cells |
| COc1ccc([C@@]23CCC(OP(=O)(O)OCOC(=O)C(C)C)=C[C@@H]2N(C)CC3)cc1OC [Compound 408, [[(3aS,7aS)-3a-(3,4-dimethoxyphenyl)-1-methyl-3,4,5,7a-tetrahydro-2H-indol-6-yl]oxy-hydroxy-phosphoryl]oxymethyl 2-methylpropanoate] | 100.0% | 63.8% | 29.2% | 8.2% | 0.8% | 0.0% | 100.0% | 94.2% | 82.6% | 69.1% | 45.4% | 23.5% | 220 min | 6.4 µL/min/1e6 cells |
